Reference: patent US20230404969A1, “COMPOSITIONS AND METHOD FOR EFFECTIVE MANAGEMENT OF PERITONITIS” (priority 2022, published 2023)
Values joined by “and” are separate entries in the source; they are usually repeats but may differ in a detail not shown here. Identical values can stand only once.

Tests used:
IL-1β = assay: Extracellular in vivo IL-1β estimation in serum from treated mice after LPS injection (ELISA); conditions: 1 mg/kg p.o for 6 days, serum 90 mins after LPS injection, ↑ upregulation
Procedure: BALM male mice aged 6-8 weeks were maintained at 22±2° C. under 12/12 h light dark cycle. Mice received oral treatment of test drugs at graded doses (w/v) for 6 days, followed by intravenous injection of 1 mg/kg (Brieva et al. Immunoferon, a glycoconjugate of natural origin, inhibits LPS-induced TNF-α production and inflammatory responses. International Immunopharmacology (2001) 1, 1979-1987). Six mice were employed in each group and experiments were performed in triplicates. Blood was collected from retro-orbital plexus of the experimental animals and serum was separated. TNF-α, IL-1β production was evaluated by a commercial ELISA kit in serum from treated mice, 90 mins after LPS injection.

CD4+ T cells = assay: Zymosan peritonitis chronic study: peripheral blood CD4+ T cell population (flow cytometry); assay type: in vivo, mouse; conditions: Withanone 2 mg/kg, day 36
Procedure: (§1) Peritoneal inflammation was induced by Zymosan A (Sigma Chemical) (Masashi et al. Zymosan, but Not Lipopolysaccharide, Triggers Severe and Progressive Peritoneal Injury Accompanied by complement Activation in a Rat Peritonitis Model) was prepared freshly in sterile, 0.9% w/v saline, and 0.5 ml was injected i.p. from day 0 to Day 5. The lymphocyte population in the peripheral blood was determined with a flow cytometer. Cells were phenotyped by flow cytometry with the following primary antibodies: CD4 (FITC) and CD8 (PE). Cells were gated broadly on all live lymphocyte cells, with only debris and multiple cell clusters being excluded. Analysis of mean fluorescence intensity was done and percentage cell population was evaluated. The test drugs were administered for 30 days after the induction of peritonitis. […]
(§2) Flow cytometry enables the characterization of cells and subcellular organelles on the basis of size and granularity and a number of different parameters defined by fluorescent probes. […] Fluorochrome labelled monoclonal antibodies directed against co-receptors CD4 and CD8 were used to quantify the lymphocyte subsets in a multiparametric flow cytometric assay. […]

CD8+ T cells = assay: Zymosan peritonitis chronic study: peripheral blood CD8+ T cell population (flow cytometry); assay type: in vivo, mouse; conditions: Withanone 2 mg/kg, day 36
Procedure: as §1, §2

IL-6 = assay: Cytometric Bead Array of peritoneal fluid, chronic zymosan peritonitis: IL-6; assay type: in vivo, mouse; conditions: 2 mg/kg, vs Zymosan control
Procedure: as §1, with “evaluated.” for “evaluated. The test drugs were administered for 30 days after the induction of peritonitis.”
(§3) The Cytometric Bead Array (Mouse Inflammation kit) was used to study cytokines in peritoneal fluid. […] Briefly, a mixture of 6 capture bead populations (50 μl) with distinct fluorescence intensities (detected in FL3) coated with antibodies specific for the above cytokines was mixed with each sample/standard (50 μl). […] Following acquisition of data by two colour cytometric analysis, the sample results were analysed using CBA software (BD Biosciences). […] Individual cytokine concentration ratios were indicated by their fluorescent intensities and was determined by interpolation from the corresponding standard curve.

IL-10 = assay: Cytometric Bead Array of peritoneal fluid, chronic zymosan peritonitis: IL-10; assay type: in vivo, mouse; conditions: 2 mg/kg, vs Zymosan control
Procedure: as §1, with “evaluated.” for “evaluated. The test drugs were administered for 30 days after the induction of peritonitis.”
as §3

[1] = tested on: Lactobacillus acidophilus (Gram positive); assay: Bacterial translocation from the gut into organs: L. acidophilus; assay type: in vivo; conditions: Withanone 2 mg/kg; positive/6 mice
Procedure: (§4) Peritoneal inflammation was induced by Zymosan A (Sigma Chemical) (Masashi et al. Zymosan, but Not Lipopolysaccharide, Triggers Severe and Progressive Peritoneal Injury Accompanied by complement Activation in a Rat Peritonitis Model) was prepared freshly in sterile, 0.9% w/v saline, and 0.5 ml was injected i.p. from day 0 to Day 5. The lymphocyte population in the peripheral blood was determined with a flow cytometer. Cells were phenotyped by flow cytometry with the following primary antibodies: CD4 (FITC) and CD8 (PE). Cells were gated broadly on all live lymphocyte cells, with only debris and multiple cell clusters being excluded. Analysis of mean fluorescence intensity was done and percentage cell population was evaluated. The test drugs were administered for 30 days after the induction of peritonitis. On 36th day the peritoneal cavity was lavaged with 1.5 ml saline, and after a 30-s gentle manual massage, 0.5 ml exudate was retrieved, centrifuged at 3000 g for 3 min, and frozen at […] prior to cytokine and chemotactic-factor assessment.
(§5) Intestine serves as a barrier in preventing gut bacteria and/or endotoxin from spreading to organs and tissues. It is also known that bacterial translocation occurs in critically ill or immunocompromised patients, and the physical disruption of mucosal barrier in vivo rodent models seem to be a key factor Tor translocation (Deitch et al. Effect of hemorrhagic shock on bacterial translocation, intestinal morphology, and intestinal permeability in conventional and antibiotic-decontaminated rats; Critical Care Medicine; 1990 18(5)). Bacterial translocation from the gut into the peritoneal cavity and organs was analyzed. The mesenteric lymph nodes, liver, and spleen of mice, study group of 30, were removed using sterile instruments. The organs were then homogenized in 1 ml of sterile cooked meat broth and 50 μl of organ homogenate was spread on blood agar plates to detect aerobic bacteria and Eosin Methylene blue agar plates to detect specially for E. coli. These plates were then incubated at 37° C. for 2 days. […]

[2] = tested on: Klebsiella pneumoniae (Gram-negative); assay: Bacterial translocation from the gut into organs: K. pneumoniae; assay type: in vivo; conditions: Withanone 2 mg/kg; positive/6 mice
Procedure: as §4, §5

gut bacteria = assay: Bacterial translocation from the gut into organs: total of study group of 30; assay type: in vivo; conditions: Withanone 2 mg/kg; positive/30 mice
Procedure: as §4, §5

For `CC1=C(C)C(=O)O[C@@H]([C@@H](C)[C@@]2(O)CC[C@H]3[C@@H]4[C@@H]5O[C@@H]5[C@@]5(O)CC=CC(=O)[C@]5(C)[C@H]4CC[C@@]32C)C1` [Withanone], the “Percentage IL-1β inhibition compared to LPS control” value (IL-1β) was 24.5%, the “Inhibition of CD4+ compared to T cell population of Zymosan control” value (CD4+ T cells) was 46% and the “Inhibition of CD8+ compared to T cell population of Zymosan control” value (CD8+ T cells) was 44%. For the same molecule, the “Inhibition of IL-6” value (IL-6) was 61%, the “Inhibition of IL-10” value (IL-10) was 52% and the “Bacterial translocation, Liver, L. acidophilus” value [1] was 1/6. The “Bacterial translocation, Mesenteric Lymph Nodes, L. acidophilus” value [1] was 1/6, the “Bacterial translocation, Spleen, L. acidophilus” value [1] was 1/6 and the “Bacterial translocation, Liver, k. pneumonia” value [2] was 0/6. The “Bacterial translocation, Mesenteric Lymph Nodes, k. pneumonia” value [2] was 0/6, the “Bacterial translocation, Spleen, k. pneumonia” value [2] was 1/6 and the “Bacterial translocation, Liver, total” value (gut bacteria) was 3/30. For the same molecule, the “Bacterial translocation, Mesenteric Lymph Nodes, total” value (gut bacteria) was 5 out of 30 and 5/30 and the “Bacterial translocation, Spleen, total” value (gut bacteria) was 3/30.
